According to US20260337193A1, “SMALL MOLECULE INHIBITORS OF UBIQUITIN SPECIFIC PROTEASE 1 (USP1) AND USES THEREOF” (Insilico Medicine IP Limited, priority 2023, published 2026):

Columns and labels:
[1] = target: T1, Human recombinant USP1/UAF1 (Homo sapiens, UniProt O94782); assay: Enzymatic assay: USP1/UAF1 deubiquitination of Ubiquitin Rhodamine 110 (kinetic fluorescence); format: biochemical; conditions: 2 nM USP1/UAF1, 15 min preincubation at RT, HEPES pH 8.0, 500 nM Ubiquitin Rhodamine 110
T1 construct: purchased R & D E-568-050; host or cells: baculovirus infected Sf21 cells
T1 sequence (O94782 whole entry): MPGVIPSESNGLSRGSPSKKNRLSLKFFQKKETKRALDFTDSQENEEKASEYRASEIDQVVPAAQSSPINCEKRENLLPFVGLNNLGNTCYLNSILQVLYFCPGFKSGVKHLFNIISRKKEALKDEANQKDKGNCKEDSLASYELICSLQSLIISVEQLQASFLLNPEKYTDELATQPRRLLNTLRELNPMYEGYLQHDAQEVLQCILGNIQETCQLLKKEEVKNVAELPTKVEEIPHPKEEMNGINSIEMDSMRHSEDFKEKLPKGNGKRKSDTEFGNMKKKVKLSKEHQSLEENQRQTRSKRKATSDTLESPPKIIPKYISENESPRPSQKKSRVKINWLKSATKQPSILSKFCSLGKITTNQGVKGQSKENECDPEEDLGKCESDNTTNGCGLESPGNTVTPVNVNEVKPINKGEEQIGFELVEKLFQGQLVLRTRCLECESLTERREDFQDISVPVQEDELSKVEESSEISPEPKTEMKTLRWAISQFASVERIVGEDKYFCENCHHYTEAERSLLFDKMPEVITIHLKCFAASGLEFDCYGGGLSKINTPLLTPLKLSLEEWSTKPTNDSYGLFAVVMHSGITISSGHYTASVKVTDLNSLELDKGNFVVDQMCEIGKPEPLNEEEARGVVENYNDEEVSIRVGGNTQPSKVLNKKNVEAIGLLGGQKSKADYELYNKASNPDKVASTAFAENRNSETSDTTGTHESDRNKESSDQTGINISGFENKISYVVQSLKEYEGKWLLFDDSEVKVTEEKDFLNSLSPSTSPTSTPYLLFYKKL
T1 sequence (Q8TAF3 whole entry partner): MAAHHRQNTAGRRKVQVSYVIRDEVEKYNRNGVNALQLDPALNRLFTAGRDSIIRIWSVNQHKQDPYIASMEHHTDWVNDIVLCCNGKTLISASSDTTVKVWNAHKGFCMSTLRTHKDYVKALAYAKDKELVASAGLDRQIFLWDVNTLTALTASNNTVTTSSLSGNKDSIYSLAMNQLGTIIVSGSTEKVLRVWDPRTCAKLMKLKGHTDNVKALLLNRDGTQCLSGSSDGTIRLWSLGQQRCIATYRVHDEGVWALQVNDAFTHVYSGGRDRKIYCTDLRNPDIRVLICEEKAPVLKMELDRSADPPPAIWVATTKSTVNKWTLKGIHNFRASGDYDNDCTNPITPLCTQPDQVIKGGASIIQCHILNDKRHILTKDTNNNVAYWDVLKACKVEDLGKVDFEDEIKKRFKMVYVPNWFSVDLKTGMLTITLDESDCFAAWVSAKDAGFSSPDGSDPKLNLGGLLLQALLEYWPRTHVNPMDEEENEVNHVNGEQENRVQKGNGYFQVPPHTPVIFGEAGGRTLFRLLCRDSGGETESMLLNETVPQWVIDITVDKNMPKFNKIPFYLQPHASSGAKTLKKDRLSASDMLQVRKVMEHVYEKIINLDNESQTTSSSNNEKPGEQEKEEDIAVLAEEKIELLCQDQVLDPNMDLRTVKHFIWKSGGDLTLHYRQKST
Procedure: Example A1: Enzymatic Assay
Human recombinant USP1/UAF1 expressed in baculovirus infected Sf21 cells were used (R & D, E-568-050). Test compound and/or vehicle was incubated with 2 nM of USP1/UAF1 in modified HEPES buffer pH 8.0 for 15 minutes at RT. The reaction was initiated by addition of 500 nM of Ubiquitin Rhodamine 110 (R & D, U-555-050) for kinetic reading. Slope change of fluorescence intensity was read spectrofluorimetrically at 485 nm/535 nm. Dose response of test compounds or reference compound ML-323 was analyzed by nonlinear regression of GraphPad prism software.

MDA-MB-436 cells = assay: MDA-MB-436 breast cancer cell proliferation assay (CellTiter-Glo); format: cell-based; conditions: Homo sapiens, 168 h, 7 days, 37° C.
Procedure: Example A2: MDA-MB-436 Breast Cancer Cell Culture
MDA-MB-436 cells were grown in Leibovitz's L-15 medium with 10 μg/ml insulin, 16 μg/ml glutathione, 10% FBS. Cells were passaged at subconfluence after trypsinization and maintained in incubators at 37° C. in a humidified atmosphere with 5% CO2.
Example A3: MDA-MB-436 Breast Cancer Cell Proliferation Assay
Cell proliferation was determined using CellTiter-Glo® Luminescent Cell Viability Assay (Promega, #G7573). MDA-MB-436 cells were seeded in 384-well plates and allowed to attach for 24 h. Compounds were added into 384-well plate by ECHO, and incubated at 37° C. in a humidified atmosphere with 5% CO2. After 7 days, CellTiter-Glo® was added into 384 well plates, contents were mixed on an orbital shaker at 400 g for 2 min before centrifuging the plate for 2 min at 1000 rpm. After incubation at RT for 30 min, luminescence was read on envision.

Row | Structure (SMILES) | IC50 [1] | IC50 (MDA-MB-436 cells)
1 | COc1ncnc(C2CC2)c1-n1nc(C)c2c1CN(c1ncc(-c3nc(C(F)(F)F)cn3C)cn1)CC2 [Compound 16, 1-(4-cyclopropyl-6-methoxypyrimidin-5-yl)-3-methyl-6-(5-(1-methyl-4-(trifluoromethyl)-1H-imidazol-2-yl)pyrimidin-2-yl)-4,5,6,7-tetrahydro-1H-pyrazolo[3,4-c]pyridine] | 50 to 1000 nM | 50 to 1000 nM
2 | Cc1nn(-c2ccccc2C(C)C)c2c1CN(c1ncc(-c3nc(C(F)(F)F)cn3C)s1)C2 [Compound 22, 2-(1-(2-isopropylphenyl)-3-methyl-4,6-dihydropyrrolo[3,4-c]pyrazol-5(1H)-yl)-5-(1-methyl-4-(trifluoromethyl)-1H-imidazol-2-yl)thiazole] | 50 to 1000 nM | 1000 to 10000 nM
3 | COc1ncnc(C2CC2)c1-n1nc(C(F)(F)F)c2c1CN(c1ccc(-c3nc(C(F)(F)F)cn3C)cn1)CC2 [Compound 23, 1-(4-cyclopropyl-6-methoxypyrimidin-5-yl)-6-(5-(1-methyl-4-(trifluoromethyl)-1H-imidazol-2-yl)pyridin-2-yl)-3-(trifluoromethyl)-4,5,6,7-tetrahydro-1H-pyrazolo[3,4-c]pyridine] | 50 to 1000 nM | 50 to 1000 nM
4 | COc1ncnc(C2CC2)c1-n1nc(C)c2c1CN(c1ncc(-c3nc(C(F)(F)F)cn3C)s1)CC2 [Compound 21, 2-(1-(4-cyclopropyl-6-methoxypyrimidin-5-yl)-3-methyl-1,4,5,7-tetrahydro-6H-pyrazolo[3,4-c]pyridin-6-yl)-5-(1-methyl-4-(trifluoromethyl)-1H-imidazol-2-yl)thiazole] | 50 to 1000 nM | 50 to 1000 nM
5 | COc1ncnc(C2CC2)c1-c1nnn2c1CN(c1ccc(-c3nc(C(F)(F)F)cn3C)cc1)CC2 [Compound 3, 3-(4-cyclopropyl-6-methoxypyrimidin-5-yl)-5-(4-(1-methyl-4-(trifluoromethyl)-1H-imidazol-2-yl)phenyl)-4,5,6,7-tetrahydro-[1,2,3]triazolo[1,5-a]pyrazine] | 50 to 1000 nM | 50 to 1000 nM
6 | COc1ncnc(C2CC2)c1-c1nccc2c1CN(c1ccc(-c3nc(C(F)(F)F)cn3C)cn1)CC2 [Compound 2, 8-(4-cyclopropyl-6-methoxypyrimidin-5-yl)-2-(5-(1-methyl-4-(trifluoromethyl)-1H-imidazol-2-yl)pyridin-2-yl)-1,2,3,4-tetrahydro-2,7-naphthyridine] | 50 to 1000 nM | 50 to 1000 nM

The next lines start with the values.

Row | IC50 [1] | IC50 (MDA-MB-436 cells) | Structure (SMILES)
7 | < 50 nM | < 50 nM | COc1ncnc(C2CC2)c1-n1nc(C)c2c1CN(c1ccc(-c3nc(C(F)(F)F)cn3C)c(F)c1)CC2 [Compound 17, 1-(4-cyclopropyl-6-methoxypyrimidin-5-yl)-6-(3-fluoro-4-(1-methyl-4-(trifluoromethyl)-1H-imidazol-2-yl)phenyl)-3-methyl-4,5,6,7-tetrahydro-1H-pyrazolo[3,4-c]pyridine]
8 | 50 to 1000 nM | < 50 nM | CCn1cc(C(F)(F)F)nc1-c1ccc(N2CCc3c(C)nn(-c4c(OC)ncnc4C4CC4)c3C2)nc1 [Compound 12, 1-(4-cyclopropyl-6-methoxypyrimidin-5-yl)-6-(5-(1-ethyl-4-(trifluoromethyl)-1H-imidazol-2-yl)pyridin-2-yl)-3-methyl-4,5,6,7-tetrahydro-1H-pyrazolo[3,4-c]pyridine]
9 | < 50 nM | < 50 nM | Cc1cnn(C(C)C)c1-n1nc(C)c2c1CN(c1ccc(-c3nc(C(F)(F)F)cn3C)cn1)CC2 [Compound 27, 1-(1-isopropyl-4-methyl-1H-pyrazol-5-yl)-3-methyl-6-(5-(1-methyl-4-(trifluoromethyl)-1H-imidazol-2-yl)pyridin-2-yl)-4,5,6,7-tetrahydro-1H-pyrazolo[3,4-c]pyridine]
10 | < 50 nM | < 50 nM | Cc1cnn(C(C)C)c1-n1nc(C)c2c1CN(c1ccc(-c3nc(C(F)(F)F)cn3C)c(F)c1)CC2 [Compound 30, 6-(3-fluoro-4-(1-methyl-4-(trifluoromethyl)-1H-imidazol-2-yl)phenyl)-1-(1-isopropyl-4-methyl-1H-pyrazol-5-yl)-3-methyl-4,5,6,7-tetrahydro-1H-pyrazolo[3,4-c]pyridine]
11 | < 50 nM | < 50 nM | Cc1nn(-c2ccccc2C(C)C)c2c1CCN(c1ccc(-c3nc(C(F)(F)F)cn3C)cn1)C2 [Compound 19, 1-(2-isopropylphenyl)-3-methyl-6-(5-(1-methyl-4-(trifluoromethyl)-1H-imidazol-2-yl)pyridin-2-yl)-4,5,6,7-tetrahydro-1H-pyrazolo[3,4-c]pyridine]
12 | < 50 nM | 50 to 1000 nM | CC(C)c1ncccc1-c1nccc2c1CC(c1ccc(-c3nc(C(F)(F)F)cn3C)cc1)C2 (stereo not drawn) [Compound 26, 1-(2-isopropylpyridin-3-yl)-6-(4-(1-methyl-4-(trifluoromethyl)-1H-imidazol-2-yl)phenyl)-6,7-dihydro-5H-cyclopenta[c]pyridine]
